Where a name gives a salt, the structure may show the parent alone. Read-outs that look alike come from different tables or passages of the source.

The test system of one test is MRSA ATCC 15187. Put plainly: MIC, broth microdilution (CLSI), Alamar blue. It counts as cell-based, Methicillin-resistant S. aureus. To be noted: MRSA ATCC 15187, 24 hours at 37 °C, read-out: Minimum inhibitory concentration (MIC) MRSA. The text has this:
(§1) The bacterial strains S. aureus ATCC 29213, MRSA ATCC 15187, E. coli ATCC 25922, and P. aeruginosa ATCC 27853 were obtained from ATCC (American Type Culture Collection). Cation-adjusted Mueller–Hinton broth (MHB; Becton–Dickinson, Cockeysville, MD) was used to determine the minimum inhibitory concentration (MIC). Mueller–Hinton agar (MHA; Becton–Dickinson) was used for minimum bactericidal concentration (MBC) studies. Alamar blue (Himedia) was used to detect the MIC value.
(§2) The antibacterial activity of the compounds against S. aureus ATCC 29213, MRSA ATCC 15187, E. coli ATCC 25922, and P. aeruginosa ATCC 27853 was determined through a broth microdilution method according to the guidelines of the Clinical and Laboratory Standards Institute (CLSI).[50] […] Growth control and media control were employed along with 2% DMSO as vehicle control.
(§3) In a 96-well flat bottom plate, the test compounds were two-fold serially diluted in Mueller Hinton Broth (MHB). The final concentrations of the compounds ranged from 100 to 0.08 μM. 100 μL of standardized bacterial inoculum with turbidity equivalent to 0.5 McFarland standard (1.5 × 10^8 CFU mL^−1) was diluted 1 : 100 (1.5 × 10^6 CFU mL^−1) in Mueller Hinton Broth and inoculated in the plates.[51] The plates were incubated for 24 hours at 37 °C. After incubation, 10 μL of freshly prepared Alamar blue (Himedia) was added to each well of the plate, and plates were further incubated at 37 °C for 30 minutes. After incubation, the fluorescence was measured at excitation/emission of 540–570/580–610 nm. The percentage inhibition and viability were calculated for the controls, and the Gompertz curve was utilized to estimate the minimum inhibitory concentration.

The next test has as its system P. aeruginosa ATCC 27853. Put plainly: MIC, broth microdilution (CLSI), Alamar blue. The format is cell-based. Particulars: P. aeruginosa ATCC 27853, 24 hours at 37 °C, read-out: Minimum inhibitory concentration (MIC) P. aeruginosa.
Excerpt: as §1, §2, §3

Another test relates to S. aureus ATCC 29213. Put plainly: MIC, broth microdilution (CLSI), Alamar blue. It counts as cell-based. To be noted: S. aureus ATCC 29213, 24 hours at 37 °C, read-out: Minimum inhibitory concentration (MIC) S. aureus.
Excerpt: as §1, §2, §3

Another test has as its system E. coli ATCC 25922. Put plainly: MIC, broth microdilution (CLSI), Alamar blue. It counts as cell-based. Particulars: E. coli ATCC 25922, 24 hours at 37 °C, read-out: Minimum inhibitory concentration (MIC) E. coli.
Excerpt: as §1, §2, §3

For another test, the system named is S. aureus. Put plainly: Combinational study (checkerboard microdilution) with standard drugs. The format is cell-based. On the procedure:
The Fractional Inhibitory Concentration Index (FICI) was calculated for each test compound and reference drug to find the combinational effect.
In a 96-well flat bottom plate, the reference drug with 4× MIC was serially diluted horizontally. The test compounds with 4× MIC were serially diluted two-fold outside the plate in 1.5 mL Eppendorf's using Mueller Hinton Broth (MHB). These two serially diluted compounds were combined to create drug-compound combinations in the plate. The reference drug (horizontally) and tested compounds (vertically) alone were serially diluted for MIC determination. 100 μL of the standardized bacterial inoculum with a turbidity equivalent to a 0.5 McFarland standard were diluted 1 : 100 in Mueller Hinton Broth and inoculated in the plates. The plates were incubated for 24 hours at 37 °C. After incubation, 10 μL of freshly prepared Alamar blue (Himedia) was added to each well of the plate, and the plates were further incubated at 37 °C for 30 minutes. After incubation, the plates were visually observed. […] The FICI was calculated using the formula FICI = FIC of compound + FIC of drug. The calculation followed is FICI (CA/(MICA)) + (CB/(MICB)), where CA is the MIC of the compound in combination, CB is the MIC of the drug in combination, and MICA and MICB are the MIC values of individual compounds and drugs, respectively. The range selection followed the interpretation criteria. The FICI range of 0.5 to 4 indicates indifference, ≤ or =0.5 indicates synergy and >4 indicates antagonism.[57]

Setting [1] is: Pseudomonas aeruginosa, ATCC27853, 24 h.
The mark [2] stands for this setting: Staphylococcus aureus, ATCC29213.

For `CC(C)=CCc1c(OCC(=O)N2CCOCC2)ccc(C(=O)/C=C/c2ccc(OCC(=O)N3CCOCC3)cc2)c1OCC(=O)N1CCOCC1` [IBC-5, (E)-2,2′-((2-(3-methylbut-2-en-1-yl)-4-(3-(4-(2-morpholino-2-oxoethoxy)phenyl)acryloyl)-1,3-phenylene)bis(oxy)) bis (1-morpholinoethan-1-one)], the MIC with MRSA ATCC 15187, in the test on MRSA ATCC 15187 (Staphylococcus aureus), with P. aeruginosa ATCC 27853, in the test on P. aeruginosa ATCC 27853 (setting [1]), in the test on S. aureus ATCC 29213 and with S. aureus ATCC 29213 (setting [2]) was more than 100 µM in each case. The MIC is more than 100 µM in the test with E. coli ATCC 25922 and more than 100 µM in the test on E. coli ATCC 25922 (Escherichia coli, ATCC25922).
With `CC(C)=CCc1c(O)ccc(C(=O)/C=C/c2ccc(OCC(=O)Nc3c(C)n(C)n(-c4ccccc4)c3=O)cc2)c1O` [IBC-7, (E)-2-(4-(3-(2,4-dihydroxy-3-(3-methylbut-2-en-1-yl)phenyl)-3-oxoprop-1-en-1-yl)phenoxy)-N-(1,5-dimethyl-3-oxo-2-phenyl-2,3-dihydro-1H-pyrazol-4-yl) acetamide], the MIC with MRSA ATCC 15187, in the test on MRSA ATCC 15187 (Staphylococcus aureus), with P. aeruginosa ATCC 27853, with P. aeruginosa ATCC 27853 (setting [1]), with S. aureus ATCC 29213 and in the test on S. aureus ATCC 29213 (setting [2]) was more than 100 µM each time. Also, the MIC in the test on E. coli ATCC 25922 was more than 100 µM; in the test with E. coli ATCC 25922 (Escherichia coli, ATCC25922), more than 100 µM.
As for `COc1ccc(/C=C/C(=O)c2ccc(OC)c(CC=C(C)C)c2OC)cc1` [IBC-4, (E)-1-(2,4-dimethoxy-3-(3-methylbut-2-en-1-yl)phenyl)-3-(4-methoxyphenyl)prop-2-en-1-one], the MIC in the test on MRSA ATCC 15187, in the test on MRSA ATCC 15187 (Staphylococcus aureus), with P. aeruginosa ATCC 27853, in the test on P. aeruginosa ATCC 27853 (setting [1]), in the test on S. aureus ATCC 29213 and in the test on S. aureus ATCC 29213 (setting [2]) was more than 100 µM throughout. The MIC is more than 100 µM with E. coli ATCC 25922 and more than 100 µM in the test with E. coli ATCC 25922 (Escherichia coli, ATCC25922).
In the case of `CC(C)=CCc1c(O)ccc(C(=O)/C=C/c2ccc(OCC(=O)N3CCSCC3)cc2)c1O` [IBC-10, (E)-1-(2,4-dihydroxy-3-(3-methylbut-2-en-1-yl)phenyl)-3-(4-(2-oxo-2-thiomorpholinoethoxy)phenyl)-prop-2-en-1-one], the MIC in the test with MRSA ATCC 15187, with MRSA ATCC 15187 (Staphylococcus aureus), with P. aeruginosa ATCC 27853, with P. aeruginosa ATCC 27853 (setting [1]), with S. aureus ATCC 29213 and in the test with S. aureus ATCC 29213 (setting [2]) was more than 100 µM in each case. In addition, the MIC with E. coli ATCC 25922 was more than 100 µM; in the test on E. coli ATCC 25922 (Escherichia coli, ATCC25922), more than 100 µM.
Consider `CC(C)=CCc1c(O)ccc(C(=O)/C=C/c2ccc(OCC(=O)Nc3cc(C)[nH]n3)cc2)c1O` [IBC-9, (E)-2-(4-(3-(2,4-dihydroxy-3-(3-methylbut-2-en-1-yl)phenyl)-3-oxoprop-1-en-1-yl)phenoxy)-N-(5-methyl-1H-pyrazol-3-yl)acetamide], for which the MIC in the test on MRSA ATCC 15187, in the test with MRSA ATCC 15187 (Staphylococcus aureus), in the test on P. aeruginosa ATCC 27853, in the test on P. aeruginosa ATCC 27853 (setting [1]), with S. aureus ATCC 29213 and in the test with S. aureus ATCC 29213 (setting [2]) was more than 100 µM in each case. Besides, the MIC with E. coli ATCC 25922 is more than 100 µM; in the test on E. coli ATCC 25922 (Escherichia coli, ATCC25922), more than 100 µM.
With `CC(C)=CCc1c(OCC(=O)N2CCCC2)ccc(C(=O)/C=C/c2ccc(OCC(=O)N3CCCC3)cc2)c1O` [IBC-8, (E)-1-(2-hydroxy-3-(3-methylbut-2-en-1-yl)-4-(2-oxo-2-(pyrrolidin-1-yl)ethoxy)phenyl)-3-(4-(2-oxo-2-(pyrrolidin-1-yl)ethoxy)phenyl) prop-2-en-1-one], the MIC in the test with MRSA ATCC 15187, in the test with MRSA ATCC 15187 (Staphylococcus aureus), in the test with P. aeruginosa ATCC 27853, in the test with P. aeruginosa ATCC 27853 (setting [1]), in the test on S. aureus ATCC 29213 and in the test on S. aureus ATCC 29213 (setting [2]) was more than 100 µM each time. Further, the MIC in the test with E. coli ATCC 25922 was more than 100 µM; in the test on E. coli ATCC 25922 (Escherichia coli, ATCC25922), more than 100 µM.
Regarding `NC[C@H]1O[C@H](O[C@H]2[C@H](O)[C@@H](O[C@H]3O[C@H](CO)[C@@H](O)[C@H](N)[C@H]3O)[C@H](N)C[C@@H]2N)[C@H](O)[C@@H](O)[C@@H]1O` [Kanamycin, kanamycin sulfate, reference compound], the MIC in the test on P. aeruginosa ATCC 27853 (setting [1]) was 2.8 µM.
Consider `CC(C)=CCc1c(O)ccc(C(=O)/C=C/c2ccc(OCC(=O)Nc3ccc(Cl)cn3)cc2)c1O` [IBC-6, (E)-N-(5-chloropyridin-2-yl)-2-(4-(3-(2,4-dihydroxy-3-(3-methylbut-2-en-1-yl)phenyl)-3-oxoprop-1-en-1-yl)phenoxy) acetamide], for which the MIC with MRSA ATCC 15187, in the test on MRSA ATCC 15187 (Staphylococcus aureus), with P. aeruginosa ATCC 27853, in the test on P. aeruginosa ATCC 27853 (setting [1]), in the test on S. aureus ATCC 29213 and in the test on S. aureus ATCC 29213 (setting [2]) was more than 100 µM in each case. The MIC in the test on E. coli ATCC 25922 was more than 100 µM; in the test on E. coli ATCC 25922 (Escherichia coli, ATCC25922), more than 100 µM.
As to `O=C(O)c1cn(C2CC2)c2cc(N3CCNCC3)c(F)cc2c1=O` [Ciprofloxacin, ciprofloxacin hydrochloride monohydrate, reference compound], the “MIC combination (drug)” value in the test with S. aureus (MIC of ciprofloxacin in combination with IBC, S. aureus) stood at 0.156 µM; in the test on S. aureus (MIC of ciprofloxacin in combination with IBC-2, S. aureus) it was 0.3125 µM; in the test on S. aureus (MIC of ciprofloxacin in combination with IBC-3, S. aureus), 0.3125 µM.

The record behind these values is article PMC11484510, “Antibacterial activity of structurally diverse natural prenylated isobavachalcone derivatives” (RSC Advances, 2024).
